In patent US6747147B2, “Oxo-azabicyclic compounds” (Warner-Lambert Company, priority 2002, dated 2004):
Counter-ions that a name gives are not always drawn.

Target: T1, catalytic domain of human MMP-13 (Homo sapiens, UniProt P45452)
T1 construct: the catalytic domain of human MMP-13
Test: Inhibition of proteolysis of a thioester peptide substrate by MMP-13
Type: biochemical
Conditions: not given
Method: Evaluation of the in vitro activity of the MMP-13 inhibitor compounds according to the invention.
The inhibitory activity of the compounds of formula (I) according to the invention with respect to matrix metalloprotease-13 is evaluated by testing the ability of the compounds of the invention to inhibit the proteolysis of a peptide substrate with MMP-13.
The peptide substrate used in the test is the following peptide: Ac-Pro-Leu-Gly-thioester-Leu-Leu-Gly-OEt.
To carry out this test, a reaction medium of 100 μl volume is prepared, containing: 50 mM of HEPES buffer, 10 mM of CaCl2 and 1 mM of 5,5′-dithiobis-(2-nitrobenzoic acid) (DTNB), and 100 μM of substrate, the pH being adjusted to 7.0.
The concentrations of inhibitors present in the test samples range from 100 μM to 0.5 nM.
The IC50 values are calculated from a curve in which the percentage of the catalytic activity relative to the control is represented on the X-axis and the concentration of inhibitor is represented on the Y-axis.

| SMILES | IC50 [nM] |
| --- | --- |
| O=c1c2cc(C#CCc3ccccc3)ccc2ncn1Cc1ccc(F)cc1 [Example 8, 3-(4-fluorobenzyl)-6-(3-phenyl-pro-1-ynyl)-3 H-quinazolin-4-one] | < 1000 |
| NS(=O)(=O)c1ccc(Cn2cnc3ccc(C#CCc4ccccc4)cc3c2=O)cc1 [Example 59, 4-[4-Oxo-6-(3-phenyl-prop-1-ynyl)-4H-quinazolin-3-ylmethyl]-benzenesulfonamide] | < 1000 |
| O=c1c2cc(C#CCc3ccccc3)ccc2ncn1Cc1cccc(Cl)c1 [Example 62, 3-(3-Chloro-benzyl)-6-(3-phenyl-prop-1-ynyl)-3H-quinazolin-4-one] | < 1000 |

Continued, values first:

| IC50 [nM] | SMILES |
| --- | --- |
| < 1000 | COC(=O)c1ccc(Cn2cnc3ccc(C#CCc4ccccc4)cc3c2=O)cc1 [Example 9, Methyl 4-[4-Oxo-6-(3-phenyl-prop-1-ynyl)-4H-quinazolin-3-ylmethyl]-benzoate] |
| < 1000 | N#Cc1ccc(Cn2cnc3ccc(C#CCc4ccccc4)cc3c2=O)cc1 [Example 60, 4-[4-Oxo-6-(3-phenyl-prop-1-ynyl)-4H-quinazolin-3-ylmethyl]-benzonitrile] |
| ≥ 65000 | O=C(O)c1ccc(Cn2cnc3ccc(C#CCN4CCOCC4)cc3c2=O)cc1 [Example 106, 4-[6-(3-Morpholin-4-yl-prop-1-ynyl)-4-oxo-4H-quinazolin-3-ylmethyl]-benzoic acid trifluoroacetic acid salt] |
| ≥ 65000 | O=C(O)c1ccc(Cn2cnc3ccc(C#CCN4CCCCC4)cc3c2=O)cc1 [Example 107, 4-[4-Oxo-6-(3-piperidin-1-yl-prop-1-ynyl)-4H-quinazolin-3-ylmethyl]-benzoic acid trifluoroacetic acid salt] |

Same assay, conditions: substrate Ac-Pro-Leu-Gly-thioester-Leu-Leu-Gly-OEt 100 μM, pH 7.0, 2.5 nM enzyme; read-out: IC50 values on MMP-13

| SMILES | IC50 [nM] |
| --- | --- |
| COc1ccc(CNC(=O)c2ccc3ncn(Cc4ccc(OC)cc4)c(=O)c3c2)cc1 [Example 1, 3-(4-Methoxy-benzyl)-4-oxo-3,4-dihydro-quinazoline-6-carboxylic acid 4-methoxy-benzylamide] | < 1000 |
| COc1ccc(CNC(=O)c2ccc3nc(C)n(Cc4ccc(OC)cc4)c(=O)c3c2)cc1 [Example 2, 3-(4-Methoxy-benzyl)-2-methyl-4-oxo-3,4-dihydro-quinazoline-6-carboxylic acid 4-methoxy-benzylamide, hydrochloride] | < 1000 |
| COC(=O)c1ccc(CN2CN(C)c3ccc(C(=O)NCc4ccc(OC)cc4)cc3C2=O)cc1 [Example 6, Methyl 4-[6-(4-Methoxy-benzylcarbamoyl)-1-methyl-4-oxo-1,4-dihydro-2H-quinazolin-3-ylmethyl]-benzoate] | < 1000 |
| COc1ccc(CNC(=O)c2ccc3c(c2)C(=O)N(Cc2ccc(C(=O)O)cc2)CN3C)cc1 [Example 7, 4-[6-(4-Methoxy-benzylcarbamoyl)-1-methyl-4-oxo-1,4-dihydro-2H-quinazolin-3-ylmethyl]-benzoic acid] | < 1000 |
| COc1cccc(CNC(=O)c2ccc3ncn(Cc4ccc(F)cc4)c(=O)c3c2)c1 [Example 14, 3-(4-Fluoro-benzyl)-4-oxo-3,4-dihydro-quinazoline-6-carboxylic acid 3-methoxy-benzylamide] | < 1000 |
| COc1ccc(CNC(=O)c2ccc3ncn(Cc4ccc(S(C)(=O)=O)cc4)c(=O)c3c2)cc1 [Example 15] | < 1000 |
| COc1ccc(CNC(=O)c2ccc3ncn(Cc4ccc(S(=O)(=O)N5CCCC5)cc4)c(=O)c3c2)cc1 [Example 16, 4-Oxo-3-[4-(pyrrolidine-1-sulfonyl)-benzyl]-3,4-dihydro-quinazoline-6-carboxylic acid 4-methoxy-benzylamide] | < 1000 |
| COc1cccc(CNC(=O)c2ccc3ncn(Cc4ccc(C(=O)O)cc4)c(=O)c3c2)c1 [Example 17, 4-[6-(3-Methoxy-benzylcarbamoyl)-4-oxo-4H-quinazolin-3-ylmethyl]-benzoic acid] | < 1000 |
| COc1cc(CNC(=O)c2ccc3ncn(Cc4ccc(F)cc4)c(=O)c3c2)ccn1 [Example 21, 3-(4-Fluoro-benzyl)-4-oxo-3,4-dihydro-quinazoline-6-carboxylic acid (2-methoxy-pyridin-4-ylmethyl)-amide] | < 1000 |
| COc1ccc(CC#Cc2ccc3ncn(Cc4ccc(F)c(F)c4)c(=O)c3c2)cc1 [Example 66, 3-(3,4-Difluoro-benzyl)-6-[3-(4-methoxy-phenyl)-prop-1-ynyl]-3H-quinazolin-4-one] | < 1000 |
| CC(=O)Nc1ccc(Cn2cnc3ccc(C#CCc4ccccc4)cc3c2=O)cc1 [Example 67, N-{4-[4-Oxo-6-(3-phenyl-prop-1-ynyl)-4H-quinazolin-3-ylmethyl]-phenyl}-acetamide] | < 1000 |
| O=c1c2cc(C#CCc3ccccc3)ccc2ncn1Cc1ccncc1 [Example 70, 6-(3-Phenyl-prop-1-ynyl)-3-pyridin-4-ylmethyl-3H-quinazolin-4-one] | < 1000 |
| COc1ccc(CC#Cc2ccc3ncn(Cc4ccncc4)c(=O)c3c2)cc1 [Example 71, 6-[3-(4-Methoxy-phenyl)-prop-1-ynyl]-3-pyridin-4-ylmethyl-3H-quinazolin-4-one] | < 1000 |
| COc1ccc(CNC(=O)c2ccc3ncn(Cc4ccc(F)c(F)c4)c(=O)c3c2)cc1 [Example 105, 3-(3,4-Difluoro-benzyl)-4-oxo-3,4-dihydro-quinazoline-6-carboxylic acid 4-methoxy-benzylamide] | < 1000 |

The remaining lines, values ahead:

| IC50 [nM] | SMILES |
| --- | --- |
| < 1000 | COc1ccc(CNC(=O)c2ccc3c(c2)C(=O)N(Cc2ccc(OC)cc2)CN3C)cc1 [Example 3, 3-(4-Methoxy-benzyl)-1-methyl-4-oxo-1,2,3,4-tetrahydro-quinazoline-6-carboxylic acid 4-methoxy-benzylamide] |
| < 1000 | COc1ccc(CNC(=O)c2ccc3c(c2)C(=O)N(Cc2ccc(OC)cc2)C(C)(C)N3C)cc1 [Example 4, 3-(4-Methoxy-benzyl)-1,2,2-trimethyl-4-oxo-1,2,3,4-tetrahydro-quinazoline-6-carboxylic acid 4-methoxy-benzylamide] |
| < 1000 | COc1ccc(CNC(=O)c2ccc3c(c2)C(=O)N(Cc2ccc(C(=O)O)cc2)CN3)cc1 [Example 5, 4-[6-(4-Methoxy-benzylcarbamoyl)-4-oxo-1,4-dihydro-2H-quinazolin-3-ylmethyl]-benzoic acid] |
| < 1000 | COc1cccc(CNC(=O)c2cc3c(=O)n(Cc4cccc(F)c4)cnc3cn2)c1 [Example 23, 3-(3-Fluoro-benzyl)-4-oxo-3,4-dihydro-pyrido[3,4-d]pyrimidine-6-carboxylic acid 3-methoxy-benzylamide] |
| < 1000 | COc1ccc(CNC(=O)c2cc3c(=O)n(Cc4cccc(F)c4)cnc3cn2)cc1 [Example 24, 3-(3-Fluoro-benzyl)-4-oxo-3,4-dihydro-pyrido[3,4-d]pyrimidine-6-carboxylic acid 4-methoxy-benzylamide] |
| < 1000 | O=c1c2cc(C#CCOc3ccncc3)ccc2ncn1Cc1ccc(F)c(F)c1 [Example 65, 3-(3,4-Difluoro-benzyl)-6-[3-(pyridin-4-yloxy)-prop-1-ynyl]-3H-quinazolin-4-one] |
| < 1000 | O=c1c2cc(C#CCc3ccccc3)ccc2ncn1Cc1ccc(F)c(F)c1 [Example 68, 3-(3,4-Difluoro-benzyl)-6-(3-phenyl-prop-1-ynyl)-3H-quinazolin-4-one] |
| < 1000 | COc1ccc(CC#Cc2ccc3ncn(Cc4ccc(C(C)=O)cc4)c(=O)c3c2)cc1 [Example 69, 3-(4-Acetyl-benzyl)-6-[3-(4-methoxy-phenyl)-prop-1-ynyl]-3H-quinazolin-4-one] |
| < 1000 | COc1cc(CNC(=O)c2ccc3ncn(Cc4ccc(F)c(F)c4)c(=O)c3c2)ccn1 [Example 104, 3-(3,4-Difluoro-benzyl)-4-oxo-3,4-dihydro-quinazoline-6-carboxylic acid (2-methoxy-pyridin-4-ylmethyl)-amide] |
| ≥ 65000 | CN1CCN(CC#Cc2ccc3ncn(Cc4ccc(C(=O)O)cc4)c(=O)c3c2)CC1 [Example 108, 4-{6-[3-(4-Methyl-piperazin-1-yl)-prop-1-ynyl]-4-oxo-4H-quinazolin-3-ylmethyl}-benzoic acid trifluoroacetic acid salt] |
| < 1000 | O=C(O)c1ccc(Cn2cnc3ccc(C#CCN4Cc5ccccc5C4)cc3c2=O)cc1 [Example 109, 4-{6-[3-(1,3-Dihydro-isoindol-2-yl)-prop-1-ynyl]-4-oxo-4H-quinazolin-3-ylmethyl}-benzoic acid trifluoroacetic acid] |
